According to patent US11571483B2, “E2F reporter melanoma cells” (THOMAS JEFFERSON UNIVERSITY, priority 2015, dated 2023):

What was measured:
[1] = system: E2F; test: E2F reporter assay in vitro (firefly luciferase normalized to actin); assay type: cell-based, human; details: 1205Lu reporter cells; palbociclib (0.5 μM), 48 hours
Excerpt: CR=complete response. […] CR=complete response.
Tumor cells were also transduced with tdTomato fluorescent protein to selectively monitor tumor growth. […] In FIG. 8 1205Lu reporter cells were transfected with silencing RNA to control sequence, CDK4, CDK6 or both CDK4 and CDK6. […] Firefly luciferase activity was normalized to actin levels in each sample.

[2] = system: E2F; test: E2F reporter activity in 1205Lu xenografts (luciferase normalized to tdTomato); assay type: in vivo, immunodeficient nude mice; details: drug-laced chow
Excerpt: (§1) FIG. 7 A depicts the E2F reporter system for measuring the efficacy of CDK4/6 and MEK inhibitors in vivo. Firefly luciferase is expressed under the control of E2F response elements. […] CR=complete response. FIG. 7D depicts analysis of E2F reporter activity normalized to tdTomato fluorescent protein activity in 1205Lu xenografts. […] CR=complete response. FIG. 7G depicts representative images of 1205Lu xenografts taken from mice fed vehicle, MEK inhibitor, CDK4/6 inhibitor and combo-laced chow analyzed for Ki67. FIG. 7H depicts quantitation of Ki67 positive cells (% of total cells) taken from mice fed vehicle (n=2), MEK inhibitor (n=4), CDK4/6 inhibitor (n=4) and combo laced chow (n=4).
(§2) Indeed, in a performed xenograft mouse model, 1205Lu reporter cells were intradermally injected into immunodeficient nude mice.
(§3) Mice were retreated with combination regimen at day 67. FIG. 9B depicts modulation of E2F activity in combination treated mice following drug removal and retreatment. […] FIG. 9C depicts RPPA analysis on resistant tumors.

[3] = system: 1205Lu xenografts; test: 1205Lu reporter xenograft model, tumor volume / response; assay type: in vivo, immunodeficient nude mice
Excerpt: as §1, §2, §3

| SMILES | reduction in firefly luciferase activity normalized to actin levels [1] [%] | E2F reporter activity in tumors on treatment [2] | complete regressions ([3]; MEK inhibitor chow (mouse #6)) | tumor regrowth on treatment ([3]; by treatment day 44) | tumor volume, initial response ([3]; drug-laced chow) |
| --- | --- | --- | --- | --- | --- |
| CC(=O)c1c(C)c2cnc(Nc3ccc(N4CCNCC4)cn3)nc2n(C2CCCC2)c1=O [palbociclib] | 60 |  |  |  |  |
| O=C(NOC[C@H](O)CO)c1ccc(F)c(F)c1Nc1ccc(I)cc1F [PD0325901] |  | strong E2F reactivation | one complete regression | dramatic tumor regrowth | initially maintained tumor volumes at a static level |
